Measurements from US11077108B2, “Allosteric corticotropin-releasing factor receptor 1 (CRFR1) antagonists that decrease p-tau and improve cognition” (The Regents of the University of California, priority 2016, dated 2021).
pKd, pKi: −log10 of the molar value. Values joined by “and” are separate entries in the source; they are usually repeats but may differ in a detail not shown here. Equal entries are not always repeated.

Assays:
[1] = Parallel Artificial Membrane Permeability Assay (PAMPA), kIAM on IAM.PC.DD.2 HPLC column; format: in vitro ADME; details: kIAM >1 indicative of good brain permeability
Description: Receptor Binding, Inhibition, and Parallel Artificial Membrane Permeability Assay (PAMPA).
Agilent 1260 infinity high-performance liquid chromatography system was used for analysis. The analytical column used was an IAM.PC.DD.2 column (4.6 mm i.d.×10 cm length, particle size […], pore size 300 Å) purchased from Regis Technologies (Morton Grove, Ill.). The mobile phase was a mixture of acetonitrile and water (35:65 v/v). The flow rate of the mobile phase was maintained at 1.0 ml/min at 25° C., and the ultraviolet absorption wavelength was set at 254 nm. Analysis was performed using 5 μL injection of the 2 mM stock solutions of the compounds. Compounds with kIAM values >1 in the PAMPA assay in our hands are indicative of good brain permeability.

[2] = system: tau and ptau in SH-SY5Y cells; test: tau and p-tau levels in SH-SY5Y cells after compound treatment (AlphaLISA); format: cell-based, Human; details: 1 μM compound, 24 hours, no CRF
Description: Human neuroblastoma SH-SY5Y cells were treated for 24 hours with 1 μM compound, and then tau and ptau levels were determined from cell lysates using AlphaLISA (FIG. 7A). T41, as well as J32. […] Antalarmin (Ant), a known CRF1 antagonist, was used as a control.

[3] = target: T1, CRFR1 (Homo sapiens, UniProt P34998); test: CRF1 antagonist effect (inhibition of CRFR1 cAMP signaling upon CRF binding); format: cell-based; parameters: expressed in transfected cells; host or cells: COS-M6 (transiently transfected)
T1 sequence (P34998 24-415): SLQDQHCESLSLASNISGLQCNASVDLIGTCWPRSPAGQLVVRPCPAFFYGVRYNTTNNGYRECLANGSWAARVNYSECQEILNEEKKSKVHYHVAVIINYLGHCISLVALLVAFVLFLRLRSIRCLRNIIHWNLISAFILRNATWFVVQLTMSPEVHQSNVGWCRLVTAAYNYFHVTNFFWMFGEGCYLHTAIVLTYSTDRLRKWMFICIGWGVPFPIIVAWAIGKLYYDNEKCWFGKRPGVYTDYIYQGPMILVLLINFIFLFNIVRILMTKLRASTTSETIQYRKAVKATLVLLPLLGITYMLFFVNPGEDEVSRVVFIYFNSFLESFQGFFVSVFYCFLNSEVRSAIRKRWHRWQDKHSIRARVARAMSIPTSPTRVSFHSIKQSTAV

[4] = target: T1, CRFR1; test: Radioligand-receptor binding assay (agonist radioligand), CRF1 Kd; parameters: expressed in transfected cells; host or cells: HEK293 (permanently transfected), membranes; details: [125I]Tyr-sauvagine agonist radioligand
Description: Radioligand-Receptor Binding Assays (Agonist Radioligand).
Isolation of membranes from permanently transfected HEK293 cells expressing tCRFR1 or hCRFR1 and Scatchard analysis were performed with 50-100 ng protein as described (3) except that 50 pM [^125I]Tyr-sauvagine (NEN) was used as radioligand. [^125I]Tyr-Sauvagine was chosen as radioligand because of its equal high affinity for both CRF-R1 and CRF-R2. Nonspecific binding was always defined as residual [^125I]Tyr-sauvagine binding in the presence of 1 μM unlabeled ligand. The dissociation constant, KD, was calculated by the Ligand program (Munson et al. (1980) Anal. Biochem. 107: 220).

[5] = system: tau and ptau in SH-SY5Y cells with CRF challenge; test: CRF challenge assay, tau and p-tau in SH-SY5Y cells; format: cell-based, Human; details: for ptau/tau ratio: 1 μM compound, three days
Description: […] On the next day, cells were treated with 100 nM CRF for 3 days. Next, cells were lysed with RIPA buffer complemented with Halt Cocktail Inhibitors, and freeze/thaw 3 times. […] Significance was not seen without CRF due to low N#, but is highly significant with CRF.

[6] = In vivo pharmacokinetics, plasma and brain levels; details: adult mice
Description: FIG. 10 illustrates in vivo pharmacokinetics for T41. As shown in the top panel, after oral or subcutaneous (SQ) dosing of adult mice at 10 or 30 mg/kg. and collection of plasma and brain at 1, 2, 4, and 8 hours, the brain/plasma ratio was ˜3:2 for 30 mg/kg oral dosing and ˜2:1 for 30 mg/kg SQ injection. […] After oral dosing at 30 mg/kg, brain levels peaked at 1 hour at 328 ng/g.

[7] = system: "Goldstein" (GS) prnp-huAPPwt-YFP mouse model; test: Novel Object Recognition (NOR) in corticosterone (CTS)-treated GS mice; format: in vivo; details: T41 30 mkd oral 1 hour before CTS 30 mkd SQ, 21 days
Excerpt: (§1) The purpose of this study was to determine behavioral and biochemical effects of T41 (shown below and in FIG. 2) and its ability to prevent corticosterone (CTS)-induced increases in ptau in the “Goldstein” (GS) prnp-huAPPwt-YFP mouse model. Corticosterone is known to increase CRF, which then should bind the receptor and trigger increases in ptau with chronic CTS injection. Biochemistry included total tau, ptau, and sAPPα from combined entorhinal cortex and hippocampus. Levels of sAPPβ, βCTF, and […] and -42 are believed to be too low to detect in this model.

[8] = system: ptau and total tau; test: In vivo ptau, total tau and ptau/tau ratio, combined entorhinal cortex and hippocampus, CTS-treated GS mice; parameters: species or system mouse; details: T41 30 mkd oral + CTS, 21 days
[9] = system: human sAPPα; test: In vivo sAPPα, CTS-treated GS mice; parameters: species or system mouse; details: T41 30 mkd oral + CTS, 21 days
Excerpt: as §1
The assay used to detect sAPPα recognizes human sAPPα, therefore the signal is expected to be undetectable in NTg mice. There was little or no difference between GS Veh and GS CTS mice (FIG. 13). […] Increases in sAPPα are correlated with improvement in cognition.

[10] = 1 μM compound and 100 nM CRF, 24 hours
[11] = hippocampus and entorhinal cortex

Compound: CCC(COC)Nc1nc(C)nc(Oc2c(C)cc(C)cc2C)c1C (stereo not shown) [Compound T33]
- PAMPA KIAM [1]: 6.34
- p-tau [2]: slightly decreased
- total tau [2]: slightly decreased
- EC50 ([3]; values given in μM): > 2 µM
- pKd [4]: ~7.52

Compound: CCC(COC)Nc1nc(C)nc(Oc2ccc(OC)cc2C)c1C (stereo not shown) [Compound T36, 6-(4-methoxy-2-methylphenoxy)-N-(1-methoxybutan-2-yl)-2,5-dimethylpyrimidin-4-amine]
- PAMPA KIAM [1]: 2.31
- pKd [4]: < 7.00

Compound: CCC(COC)Nc1nc(C)nc(Oc2ccc(Cl)cc2C)c1C (stereo not shown) [Compound T37, 6-(4-chloro-2-methylphenoxy)-N-(1-methoxybutan-2-yl)-2,5-dimethylpyrimidin-4-amine]
- PAMPA KIAM [1]: 5.79
- pKd [4]: < 7.00

Compound: CCC(COC)Oc1nc(C)nc(Nc2ccc(OC)cc2C)c1C (stereo not shown) [Compound T38, N-(4-methoxy-2-methylphenyl)-6-((1-methoxybutan-2-yl)oxy)-2,5-dimethylpyrimidin-4-amine]
- PAMPA KIAM [1]: 2.02
- EC50 ([3]; values given in μM): > 2 µM
- pKd [4]: ~7.52

Compound: CCC(COC)Oc1nc(C)nc(Nc2ccc(Cl)cc2C)c1C (stereo not shown) [Compound T39]
- PAMPA KIAM [1]: 6.19
- p-tau [2]: slightly decreased
- p-tau/tau ratio [2]: significantly decreased
- total tau [2]: slightly decreased
- EC50 ([3]; values given in μM): > 10 µM
- pKd [4]: 7.12

Compound: CCC(COC)Oc1nc(C)nc(OC(CC)COC)c1C (stereo not shown) [Compound T40]
- PAMPA KIAM [1]: 4.68
- pKd [4]: < 7.00

Compound: CCC(COC)Oc1nc(C)nc(Nc2c(C)cc(C)cc2C)c1C (stereo not shown) [Compound T41]
- PAMPA KIAM [1]: 4.01
- p-tau [2]: slightly decreased
- p-tau/tau ratio [2]: significantly decreased
- total tau [2]: slightly decreased
- p-tau [5, 10]: lowers p-tau with high significance
- p-tau/tau ratio [5, 10]: significant lowering
- tau [5, 10]: does not lower tau
- ptau/tau ratio ([5]; with 100 nM CRF): lowers the ptau/tau ratio
- ptau/tau ratio ([5]; without CRF): lowers the ptau/tau ratio
- brain levels, comparison of doses and routes ([6]; 10 or 30 mg/kg, oral or SQ): higher at 30 than 10 mg/kg and higher with SQ injection than oral delivery
- peak brain level ([6]; oral dosing at 30 mg/kg): 328 ng/g
- time of peak brain level ([6]; oral dosing at 30 mg/kg): 1 h
- novelty preference (NOR), post-study [7]: promising trend toward some increased novelty preference
- ptau [8, 11]: no significant difference
- total tau [8, 11]: overall had the highest value
- ptau/tau ratio ([8]; versus CTS alone): T41 pre-treatment to prevent that increase
- sAPPα [9]: trend toward an increase in sAPPα in T41-treated mice that was not statistically significant
- pKi ([3]; CRFR1 cAMP signaling upon CRF binding): 6.40
- inhibition at 1 µM ([3]; at 1 μM, upon CRF binding): 70%
- EC50 ([3]; values in nM): 0.4 µM
- pKd [4]: ~7.82 and 7.82

Compound: CCC(COC)Oc1nc(C)nc(Nc2ccc(F)cc2F)c1C (stereo not shown) [Compound T45]
- PAMPA KIAM [1]: 3.32
- pKd [4]: < 7.00

Compound: CCC(COC)Oc1nc(C)nc(Nc2ccc(F)cc2C(F)(F)F)c1C (stereo not shown) [Compound T46]
- PAMPA KIAM [1]: 2.90
- pKd [4]: < 7.00

Compound: CCC(COC)Oc1nc(C)nc(Nc2c(F)cc(F)cc2F)c1C (stereo not shown) [Compound T47]
- PAMPA KIAM [1]: 2.00
- pKd [4]: < 7.00

Compound: CCC(COC)Oc1nc(C)nc(Nc2ccc(F)cc2C)c1C (stereo not shown) [Compound T48]
- PAMPA KIAM [1]: 3.27

Compound: CCC(COC)Oc1nc(C)nc(Nc2c(C)cc(F)cc2C)c1C (stereo not shown) [Compound T49]
- pKd [4]: 7.40

Compound: CCC(COC)Oc1nc(C)nc(Nc2ncc(C)cc2C)c1C (stereo not shown) [Compound T51]
- pKd [4]: 6.00

Compound: CCC(COC)Oc1nc(C)nc(Nc2cnn(C)c2C)c1C (stereo not shown) [Compound T53]
- CRF1 (agonist radioligand) Kd/(nM) [4]: DEAD

Compound: CCC(COC)Oc1nc(C)nc(Nc2ccn(C)n2)c1C (stereo not shown) [Compound T54]
- CRF1 (agonist radioligand) Kd/(nM) [4]: DEAD
